According to PMC9516332 (Frontiers in Oncology, 2022):
Where two headings read alike, the source gives them in different places.

Assays:
Experiment in all cases: Kinase panel profiling at 1 µmol/L (MSA or IMAP), percentage inhibition
Type in all cases: biochemical
[1] = biological target: panel of 255 wild-type kinases (Homo sapiens, UniProt O96017); details: CHK2 kinase assay; 1 µmol/L single concentration; read-out: %-inhibition CHK2
[2] = biological target: panel of 255 wild-type kinases (Homo sapiens, UniProt Q16816); details: kinase PHKG1; 1 µmol/L single concentration; read-out: %-inhibition at 1 µmol/L, PHKG1
[3] = biological target: T1, panel of 255 wild-type kinases (Homo sapiens, UniProt Q96PN8); details: kinase TSSK3; 1 µmol/L single concentration; read-out: %-inhibition at 1 µmol/L, TSSK3
T1 sequence (Q96PN8 1-268): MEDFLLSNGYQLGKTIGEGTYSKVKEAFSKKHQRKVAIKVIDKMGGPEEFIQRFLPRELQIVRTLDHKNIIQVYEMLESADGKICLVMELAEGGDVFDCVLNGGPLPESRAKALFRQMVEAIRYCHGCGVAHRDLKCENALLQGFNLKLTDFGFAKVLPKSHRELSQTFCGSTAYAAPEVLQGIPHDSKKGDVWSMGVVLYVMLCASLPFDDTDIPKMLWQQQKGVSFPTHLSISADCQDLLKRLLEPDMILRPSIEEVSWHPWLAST

[4] = biological target: panel of 255 wild-type kinases (Homo sapiens, UniProt P00533); details: kinase EGFR; 1 µmol/L single concentration; read-out: %-inhibition at 1 µmol/L, EGFR
[5] = biological target: panel of 255 wild-type kinases (Homo sapiens, UniProt Q9Y463); details: kinase DYRK1B; 1 µmol/L single concentration; read-out: %-inhibition at 1 µmol/L, DYRK1B
[6] = biological target: panel of 255 wild-type kinases (Homo sapiens, UniProt Q02763); details: kinase TIE2; 1 µmol/L single concentration; read-out: %-inhibition at 1 µmol/L, TIE2
[7] = biological target: panel of 255 wild-type kinases (Homo sapiens, UniProt P42685); details: kinase FRK; 1 µmol/L single concentration; read-out: %-inhibition at 1 µmol/L, FRK
[8] = biological target: panel of 255 wild-type kinases (Homo sapiens, UniProt P24941); details: 1 µmol/L single concentration
[9] = biological target: panel of 255 wild-type kinases (Homo sapiens, UniProt Q13555); details: CaMK2γ kinase assay; 1 µmol/L single concentration; read-out: %-inhibition CaMK2γ
[10] = biological target: panel of 255 wild-type kinases (Homo sapiens, UniProt O75676); details: MSK2; 1 µmol/L single concentration; read-out: %-inhibition, MSK2
[11] = biological target: panel of 255 wild-type kinases (Homo sapiens, UniProt O96013); details: PAK4; 1 µmol/L single concentration; read-out: %-inhibition, PAK4
[12] = biological target: panel of 255 wild-type kinases (Homo sapiens, UniProt Q9Y2H1); details: NDR2; 1 µmol/L single concentration; read-out: %-inhibition, NDR2
[13] = biological target: panel of 255 wild-type kinases (Homo sapiens, UniProt P27448); details: MARK3; 1 µmol/L single concentration; read-out: %-inhibition, MARK3
[14] = biological target: panel of 255 wild-type kinases (Homo sapiens, UniProt P16234); details: kinase PDGFRα; 1 µmol/L single concentration; read-out: %-inhibition at 1 µmol/L, PDGFRα
[15] = biological target: panel of 255 wild-type kinases (Homo sapiens, UniProt P11362); details: kinase FGFR1; 1 µmol/L single concentration; read-out: %-inhibition at 1 µmol/L, FGFR1
[16] = biological target: panel of 255 wild-type kinases (Homo sapiens, UniProt Q13557); details: CaMK2δ kinase assay; 1 µmol/L single concentration; read-out: %-inhibition CaMK2δ
[17] = biological target: panel of 255 wild-type kinases (Homo sapiens, UniProt P49840); details: kinase GSK3α; 1 µmol/L single concentration; read-out: %-inhibition at 1 µmol/L, GSK3α
[18] = biological target: panel of 255 wild-type kinases (Homo sapiens, UniProt Q13164); details: kinase Erk5; 1 µmol/L single concentration; read-out: %-inhibition at 1 µmol/L, Erk5
[19] = biological target: panel of 255 wild-type kinases (Homo sapiens, UniProt P54646); details: AMPKα2/β1/γ1 kinase assay; 1 µmol/L single concentration; read-out: %-inhibition AMPKα2/β1/γ1
[20] = biological target: panel of 255 wild-type kinases (Homo sapiens, UniProt Q96SB4); details: kinase SRPK1; 1 µmol/L single concentration; read-out: %-inhibition at 1 µmol/L, SRPK1
[21] = CDK2/CycA2 kinase assay, read-out: %-inhibition CDK2/CycA2
[22] = CDK2/CycE1 kinase assay, read-out: %-inhibition CDK2/CycE1

SMILES | inhibition at 1 µM [1] [%] | inhibition at 1 µM [2] [%] | inhibition at 1 µM [3] [%] | inhibition at 1 µM [4] [%] | inhibition at 1 µM [5] [%] | inhibition at 1 µM [6] [%] | inhibition at 1 µM [7] [%] | inhibition at 1 µM [8, 21] [%] | inhibition at 1 µM [8, 22] [%] | inhibition at 1 µM [9] [%] | inhibition at 1 µM [10] [%] | inhibition at 1 µM [11] [%] | inhibition at 1 µM [12] [%] | inhibition at 1 µM [13] [%] | inhibition at 1 µM [14] [%] | inhibition at 1 µM [15] [%] | inhibition at 1 µM [16] [%] | inhibition at 1 µM [17] [%] | inhibition at 1 µM [18] [%] | inhibition at 1 µM [19] [%] | further results
CCc1nc(C(N)=O)c(Nc2ccc(N3CCC(N4CCN(C)CC4)CC3)c(OC)c2)nc1NC1CCOCC1 [gilteritinib] | 75 | 92 | 11 | 85 | 34 | 41 | 95 | 27 | 17 | 62 | 6 | 74 | 66 | 52 | 95 | 55 | 84 | 7.48 | 38 | 21 | inhibition at 1 µM [20]: -8%
O=C(Nc1cnn2ccc(N3CCC[C@@H]3c3cc(F)ccc3F)nc12)N1CC[C@H](O)C1 [larotrectinib] | 3.46 | 1.81 | 0.55 | 5 | 6 | 1.84 | -0.308 | -2.44 | -18 | -0.126 | -3.36 | -4.61 | -4.33 | 4 | 2.45 | -2 | 6 | -6.65 | 1.26 | -6 | inhibition at 1 µM [20]: -12%
CO[C@]1(C(=O)N[C@@H](C)c2ccc(-n3cc(F)cn3)nc2)CC[C@H](c2nc(C)cc(Nc3cc(C)[nH]n3)n2)CC1 [pralsetinib] | 10 | 1.67 | -5 | 48 | -12 | 5.49 | 82 | 66 | 58 | -3 | 3.18 | 66 | 0.23 | -8 | 99 | 96 | -1 | 62 | 0.775 | 83 | inhibition at 1 µM [20]: -4%
COc1ccc(CN2C3CC2CN(c2ccc(-c4cc(OCC(C)(C)O)cn5ncc(C#N)c45)cn2)C3)cn1 [selpercatinib] | 80 | 8 | -4 | 0.116 | 1.42 | 43 | 13 | 0.89 | -15 | 0.226 | 5.66 | 8 | -4.53 | 45 | 96 | 97 | 1.36 | 30 | 4 | 28 | inhibition at 1 µM [20]: -9%
Cn1cnc2c(F)c(Nc3ccc(Br)cc3Cl)c(C(=O)NOCCO)cc21 [selumetinib] | 4 | -0.945 | -3 | 26 | -3.17 | -9 | -3 | 1.44 | -55 | -3 | -0.42 | 4.6 | -3.24 | -6 | 25 | -1.41 | -3 | -1.06 | 2.36 | 1.9 | inhibition at 1 µM [20]: 6%
Cc1cc(Nc2ncnc3ccc(NC4=NC(C)(C)CO4)cc23)ccc1Oc1ccn2ncnc2c1 [tucatinib] | 4 | -3.62 | -0.029 | 95 | -1.89 | -2.82 | -2.17 | -0.285 | -36 | -5 | 1.24 | 5 | -0.504 | -10 | 30 | -3.24 | -3 | 5.54 | -1.07 | -1.44 | inhibition at 1 µM [20]: -3%
C=CC(=O)N1CCC([C@@H]2CCNc3c(C(N)=O)c(-c4ccc(Oc5ccccc5)cc4)nn32)CC1 [zanubrutinib] | 4 | 2.38 | 0.315 | 92 | 5.39 | 2 | 82 | -2.82 | -15 | 1.6 | -4 | -11 | 0.505 | -1.28 | 11 | 4.53 | 3 | -7 | 3.76 | -5 | inhibition at 1 µM [20]: -6%
